{"source": "patent US8097404B2", "about": "“Composition and method for cell permeabilization comprising N-octyl-β-D-glucopyranoside, sodium polyphosphates, rubidium chloride and/or lithium chloride for detecting living cells on a membrane” (Millipore Corporation, priority 2008, dated 2012)", "tested_on": "S. aureus (Gram-positive bacterium) ATCC 6538", "experiment": "Fluorescence detection of microcolonies on membrane after permeabilization and 5/6-CFDA labeling", "format": "cell-based", "conditions": "agent used alone", "method": "The tested strains of E. coli (Gram-negative bacterium) ATCC 8739 and of S. aureus (Gram-positive bacterium) ATCC 6538 or B. subtilis (Gram-positive bacterium) ATCC 6633 were preserved in cryotubes (Dutscher, ref. 028049) frozen at −80° C. prepared from freeze-dried strains obtained from collections.\nFor all the tests, the bacteria strains are diluted in tubes of peptone water (Biomérieux, ref. 42111). A cascade dilution is performed by adding 1 ml of the cryotube of the strain used to 9 ml of the tube of peptone water until the desired dilution is obtained. The concentration was adjusted in order to obtain on average 30 bacteria per sample. This concentration was verified on a Petri dish by a conventional count test on agar medium. […]\nA universal fluorogenic marker, namely 5/6-carboxyfluorescein diacetate (CFDA) (Sigma 21879-100MG) diluted in DMSO, is added to the permeabilization compositions in order to reach a final concentration of 100 μg/ml. […] The membrane is then removed from the labeling solution and placed in an illuminator equipped with a camera in order to measure the fluorescence emitted between 520 and 530 nm.\nThe fluorescence intensity results summarized in Tables 1 to 3 below correspond to the light energy (luminescence) captured and recorded to the nearest pixel by the CCD camera using the Sherlock image analyzing software (Insosys Inc.). […]", "data": [{"compound": "CCCCCCCCO[C@@H]1O[C@H](CO)[C@@H](O)[C@H](O)[C@H]1O", "note": "[N-Octyl-β-D-glucopyranoside]", "values": [{"measurement": "Permeabilization of Gram-positive bacteria, in words", "result": "unsuitable"}]}]}
